# Source: patent US6914045B2, “Glycopeptide antibiotics” (Wyeth Holdings Corporation, priority 2001, dated 2005)
# Assays:
# [1] = anatomic pathology (histopathology of heart and kidney) in mice; format: in vivo; conditions: CD-1 mice, 20 mg/kg intravenously daily for 9 days, necropsy day 10, microscopic histopathology
# Experimental: Samples of tissues from necropsied mice were formalin-fixed, paraffin-embedded, sectioned, stained with hematoxylin and eosin, and examined microscopically. Histopathologic findings were recorded. These findings were subjectively graded on a scale corresponding to slight, mild, moderate, marked and severe as compared to untreated controls.
# [2] = tested on: Escherichia coli; assay: in vitro antibacterial evaluation, MIC by broth dilution; format: cell-based
# Summary of the method: (§1)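 Broth dilution per NCCLS M7-A2 in Mueller-Hinton II medium, inoculum 5×10^5 CFU/mL, antibiotic range 64-0.06 μg/mL. MIC taken as lowest concentration inhibiting growth; Gram-positive panel includes recent clinical isolates resistant to methicillin, penicillin and/or vancomycin.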
# [3] = tested on: Streptococcus sp.; assay: as above; format: cell-based; conditions: broth dilution, 18 hours at 35° C.
# Summary of the method: as §1
# [4] = tested on: Enterococcus sp.; assay: as above; format: cell-based; conditions: broth dilution, 18 hours at 35° C.
# Summary of the method: as §1
# [5] = tested on: Staphylococcus sp.; assay: as above; format: cell-based; conditions: broth dilution, 18 hours at 35° C.; for MIC Staphylococcus aureus (GC 1131): strain GC 1131
# Summary of the method: as §1
# [6] = clinical pathology (serum clinical chemistry) in mice; format: in vivo; conditions: CD-1 mice, 20 mg/kg intravenously daily for 9 days, sera day 10
# Experimental: 20-day-old CD-1 mice were divided into a vehicle control group (5 mice) and a treatment group (5 mice). Samples of glycopeptide antibiotics were administered at 20 mg/kg intravenously daily for 9 days.
smiles,measurement,setting,value
"CC(c1ccccc1)C1NC(=O)CNC(=O)C(CO)NC(=O)C(C(O)C2CNC(=N)N2C2OC(CO)C(O)C(O)C2O)NC(=O)C(C(O)C2CNC(=N)N2)NC(=O)C(Cc2ccc(OC3OC(CO)C(OC4OC5COC(c6ccc(C(=O)O)cc6)OC5C(O)C4O)C(O)C3O)cc2)NC1=O (stereo not drawn) [Example 141, Cyclo[glycyl-β-methylphenylalanyl-O-[4-O-[4,6-O-(4-carboxybenzylidene)hexopyranosyl]-hexopyranosyl]tyrosyl-3-(2-iminoimidazolidin-4-yl)seryl-3-(3-hexopyranosyl-2-iminoimidazolidin-4-yl)serylseryl]]","Anatomical Pathology (Day 10), Heart",[1],0
same,"Anatomical Pathology (Day 10), Kidney",[1],+++
same,MIC Escherichia coli (ATCC 25922),"[2]; strain ATCC 25922, 18 hours at 35° C.",>64 µg/mL
same,MIC Escherichia coli (GC 4559),"[2]; strain GC 4559, 18 hours at 35° C.",>64 µg/mL
same,MIC Escherichia coli (GC 4560),"[2]; strain GC 4560, 18 hours at 35° C.",>64 µg/mL
same,MIC Streptococcus agalactiae (GC 4564),[3]; Streptococcus agalactiae (GC 4564),>64 µg/mL
same,MIC Streptococcus pneumoniae (ATCC 6301),[3]; Streptococcus pneumoniae (ATCC 6301),>64 µg/mL
same,MIC Streptococcus pneumoniae (GC 1894),[3]; Streptococcus pneumoniae (GC 1894),>64 µg/mL
same,MIC Streptococcus pneumoniae (GC 4565),[3]; Streptococcus pneumoniae (GC 4565),>64 µg/mL
same,MIC Streptococcus pyogenes (GC 4563),[3]; Streptococcus pyogenes (GC 4563),>64 µg/mL
same,MIC Streptococcus pneumoniae (ATCC 6301),[3]; strain ATCC 6301,>64 µg/mL
same,MIC Streptococcus pneumoniae (GC 1894),[3]; strain GC 1894,>64 µg/mL
same,MIC Streptococcus pyogenes (GC 4563),[3]; strain GC 4563,>64 µg/mL
same,MIC Streptococcus agalactiae (GC 4564),[3]; strain GC 4564,>64 µg/mL
same,MIC Streptococcus pneumoniae (GC 4565),[3]; strain GC 4565,>64 µg/mL
same,MIC Enterococcus avium (GC 4558),[4]; Enterococcus avium (GC 4558),>64 µg/mL
same,MIC Enterococcus faecalis (ATCC 29212),[4]; Enterococcus faecalis (ATCC 29212),>64 µg/mL
same,MIC Enterococcus faecalis (GC 2242),[4]; Enterococcus faecalis (GC 2242),>64 µg/mL
same,MIC Enterococcus faecalis (GC 2691),[4]; Enterococcus faecalis (GC 2691),>64 µg/mL
same,MIC Enterococcus faecalis (GC 3059),[4]; Enterococcus faecalis (GC 3059),>64 µg/mL
same,MIC Enterococcus faecalis (GC 4552),[4]; Enterococcus faecalis (GC 4552),>64 µg/mL
same,MIC Enterococcus faecalis (GC 4553),[4]; Enterococcus faecalis (GC 4553),>64 µg/mL
same,MIC Enterococcus faecalis (GC 4554),[4]; Enterococcus faecalis (GC 4554),>64 µg/mL
same,MIC Enterococcus faecalis (GC 6189),[4]; Enterococcus faecalis (GC 6189),>64 µg/mL
same,MIC Enterococcus faecium (GC 2243),[4]; Enterococcus faecium (GC 2243),>64 µg/mL
same,MIC Enterococcus faecium (GC 4556),[4]; Enterococcus faecium (GC 4556),>64 µg/mL
same,MIC Enterococcus faecium (GC 4557),[4]; Enterococcus faecium (GC 4557),64 µg/mL
same,MIC Enterococcus faecalis (ATCC 29212),[4]; strain ATCC 29212,>64 µg/mL
same,MIC Enterococcus faecalis (GC 2242),[4]; strain GC 2242,>64 µg/mL
same,MIC Enterococcus faecium (GC 2243),[4]; strain GC 2243,>64 µg/mL
same,MIC Enterococcus faecalis (GC 2691),[4]; strain GC 2691,>64 µg/mL
same,MIC Enterococcus faecalis (GC 3059),[4]; strain GC 3059,>64 µg/mL
same,MIC Enterococcus faecalis (GC 4552),[4]; strain GC 4552,>64 µg/mL
same,MIC Enterococcus faecalis (GC 4553),[4]; strain GC 4553,>64 µg/mL
same,MIC Enterococcus faecalis (GC 4554),[4]; strain GC 4554,>64 µg/mL
same,MIC Enterococcus faecium (GC 4556),[4]; strain GC 4556,>64 µg/mL
same,MIC Enterococcus faecium (GC 4557),[4]; strain GC 4557,64 µg/mL
same,MIC Enterococcus avium (GC 4558),[4]; strain GC 4558,>64 µg/mL
same,MIC Enterococcus faecalis (GC 6189),[4]; strain GC 6189,>64 µg/mL
same,MIC Staphylococcus aureus (GC 1131),[5]; inoculum 5×10^5 CFU/mL,>64 µg/mL
same,MIC Staphylococcus aureus (ATCC 29213),[5]; strain ATCC 29213,>64 µg/mL
same,MIC Staphylococcus aureus (GC 1131),[5],>64 µg/mL
same,MIC Staphylococcus aureus (GC 3051),[5]; strain GC 3051,>64 µg/mL
same,MIC Staphylococcus aureus (GC 3053),[5]; strain GC 3053,>64 µg/mL
same,MIC Staphylococcus aureus (GC 4541),[5]; strain GC 4541,>64 µg/mL
same,MIC Staphylococcus aureus (GC 4542),[5]; strain GC 4542,>64 µg/mL
same,MIC Staphylococcus aureus-SMITH (GC 4543),[5]; strain GC 4543,>64 µg/mL
same,MIC Staphylococcus aureus (GC 4544),[5]; strain GC 4544,>64 µg/mL
same,MIC Staphylococcus aureus (GC 4545),[5]; strain GC 4545,>64 µg/mL
same,MIC Staphylococcus haemolyticus (GC 4546),[5]; strain GC 4546,>64 µg/mL
same,MIC Coagulase Negative Staphylococcus (GC 4547),[5]; strain GC 4547,>64 µg/mL
same,MIC Coagulase Negative Staphylococcus (GC 4548),[5]; strain GC 4548,>64 µg/mL
same,MIC Coagulase Negative Staphylococcus (GC 4549),[5]; strain GC 4549,>64 µg/mL
same,MIC Coagulase Negative Staphylococcus (GC 4551),[5]; strain GC 4551,>64 µg/mL
same,MIC Coagulase Negative Staphylococcus (GC 6257),[5]; strain GC 6257,>64 µg/mL
same,MIC Staphylococcus aureus-SMITH (GC 4543),[5]; strain SMITH GC 4543,>64 µg/mL
same,"Clinical Chemistry (Day 10) % of Control, BUN",[6],+308%
same,"Clinical Chemistry (Day 10) % of Control, Creatinine",[6],+113%
